Laboratory results taken from the NIST ThermoML archive (doi:10.1016/j.jct.2010.06.008).

Assay: xn = mol fraction of the nth substance listed
Settings: 101 kPa, Liquid; for speed of sound: Sing-around technique in a fixed-path interferometer; for mass density: Vibrating tube method

CCCCCl [1-chlorobutane] + CCCCCC
Settings | mass density, 283.15 K [kg/m3] | mass density, 298.15 K [kg/m3] | mass density, 313.15 K [kg/m3] | speed of sound, 283.15 K [m/s] | speed of sound, 298.15 K [m/s] | speed of sound, 313.15 K [m/s]
x2 = 0 | 897.339 | 880.785 | 863.882 | 1180.1 | 1118.2 | 1056.9
x2 = 0.0508 | 882.878 | 866.478 | 849.768 | 1176 | 1113.8 | 1052.2
x2 = 0.0992 | 869.441 | 853.196 | 836.65 | 1172.3 | 1109.7 | 1047.9
x2 = 0.1972 | 843.152 | 827.205 | 810.995 | 1165.6 | 1102.4 | 1040
x2 = 0.2966 | 817.766 | 802.115 | 786.257 | 1159.7 | 1095.9 | 1032.8
x2 = 0.3976 | 793.168 | 777.821 | 762.288 | 1154.6 | 1090.2 | 1026.5
x2 = 0.5009 | 769.237 | 754.195 | 739.001 | 1150.5 | 1085.6 | 1021.2
x2 = 0.6006 | 747.205 | 732.45 | 717.601 | 1147.4 | 1081.8 | 1016.9
x2 = 0.6982 | 726.617 | 712.126 | 697.583 | 1145.2 | 1079.1 | 1013.6
x2 = 0.7972 | 706.669 | 692.488 | 678.241 | 1143.9 | 1077.2 | 1011.2
x2 = 0.8979 | 687.33 | 673.439 | 659.508 | 1143.7 | 1076.4 | 1009.8
x2 = 0.9472 | 678.205 | 664.449 | 650.666 | 1144.1 | 1076.4 | 1009.7

CCCCCl [1-chlorobutane] + CCCCCCC
mass density [kg/m3]
Settings | 283.15 K | 298.15 K | 313.15 K
x2 = 0 | 897.339 | 880.785 | 863.882
x2 = 0.0508 | 882.735 | 866.442 | 849.802
x2 = 0.1017 | 868.636 | 852.592 | 836.205
x2 = 0.1981 | 843.549 | 827.947 | 812.014
x2 = 0.2989 | 819.278 | 804.127 | 788.662
x2 = 0.4022 | 796.314 | 781.594 | 766.57
x2 = 0.4998 | 776.207 | 761.86 | 747.232
x2 = 0.6008 | 756.852 | 742.869 | 728.632
x2 = 0.6989 | 739.334 | 725.722 | 711.853
x2 = 0.7985 | 722.761 | 709.483 | 695.957
x2 = 0.898 | 707.234 | 694.282 | 681.084
x2 = 0.9498 | 699.591 | 686.802 | 673.764

CC(C)(C)Cl [2-chloro-2-methylpropane] + CCCCCC
Settings | mass density, 283.15 K [kg/m3] | mass density, 298.15 K [kg/m3] | mass density, 313.15 K [kg/m3] | speed of sound, 283.15 K [m/s] | speed of sound, 298.15 K [m/s] | speed of sound, 313.15 K [m/s]
x2 = 0 | 855.249 | 837.096 | 818.536 | 1046.9 | 983.25 | 919.41
x2 = 0.0495 | 843.636 | 825.763 | 807.514 | 1049.8 | 985.59 | 922.06
x2 = 0.0989 | 832.389 | 814.802 | 796.851 | 1052.2 | 987.79 | 924.46
x2 = 0.2019 | 809.862 | 792.826 | 775.465 | 1058.6 | 993.98 | 930.06
x2 = 0.2987 | 789.789 | 773.235 | 756.4 | 1065.7 | 1000.7 | 936.45
x2 = 0.4043 | 768.847 | 752.8 | 736.513 | 1074.5 | 1009.1 | 944.41
x2 = 0.4985 | 751.114 | 735.482 | 719.653 | 1083.1 | 1017.5 | 952.34
x2 = 0.6024 | 732.382 | 717.205 | 701.869 | 1093.7 | 1027.6 | 962.01
x2 = 0.7017 | 715.376 | 700.606 | 685.731 | 1104.7 | 1038.2 | 972.24
x2 = 0.7996 | 699.305 | 684.94 | 670.488 | 1116.6 | 1049.7 | 983.31
x2 = 0.9025 | 683.186 | 669.222 | 655.21 | 1130.4 | 1063 | 996.24
x2 = 0.9498 | 676.073 | 662.283 | 648.468 | 1137.2 | 1069.5 | 1002.6
